From PMC5617979, “Comparative Study on Antistaphylococcal Activity of Lipopeptides in Various Culture Media” (Antibiotics, 2017)
Positions of bridges follow the written chain, without caps; N, C: chain ends. No end group written: not given here.

Assays:
[1] = test system: Staphylococcus aureus (five reference strains ATCC 25923, ATCC 6538, ATCC 6538/P, ATCC 9144, ATCC 12598 and five clinical strains); assay: MIC assay, broth microdilution; assay type: cell-based; details: planktonic S. aureus, 5 × 10^5 CFU/mL, 18 h, 37 °C, Figure 1, mean MIC
Description: Antimicrobial activity was determined against five reference strains: S. aureus ATCC 25923, S. aureus ATCC 6538, S. aureus ATCC 6538/P, S. aureus ATCC 9144, and S. aureus ATCC 12598, which were obtained from the Polish Collection of Microorganisms (Polish Academy of Sciences, Wroclaw), and against five clinical strains of S. aureus, which were provided by the Department of Oral Microbiology, Medical University of Gdańsk (Poland). These strains were also characterized in terms of methicillin resistance. Preliminary identification and detection was conducted on the ChromID MRSA/ChromID S. aureus biplate (bioMérieux) for simultaneous detection of S. aureus and methicillin-resistant S. aureus (MRSA). All tested strains (both reference and clinical S. aureus) were stored in cryo-vials (Roti®-Store, Carl Roth) and recultivated before all microbiological tests. All strains were cultured in three different media: Brain-Heart Infusion Broth (BHI, Biocorp, Warsaw, Poland), Mueller Hinton Broth (MH, Biocorp), and Tryptic-Soy Broth (TSB, Biocorp). Moreover, the stock solutions of lipopeptides were prepared in two different solvents: PBS and an aqueous solution of acetic acid/BSA (0.01% and 0.2% respectively). MIC was determined by broth microdilution method on polystyrene 96-well plates. Bacteria at initial inoculums of 5 × 10^5 CFU/mL were exposed to lipopeptides at concentrations ranging from 0.5 to 256 µg/mL and incubated for 18 h at 37 °C. The MIC value was taken as the lowest concentration of the compound that inhibited the growth of the microorganisms. All assays were performed in triplicate and included the growth and sterility control.

Staphylococcus = details: previously described compounds; cited from earlier work
Text: All of the lipopeptides are palmitoylated at N-terminus and contain three or four basic amino acid residues. Moreover, compounds are amidated at C-termini to maximize positive charge. […] Arginine, as a basic amino acid, introduce positive charge; however, it has more hydrogen donor atoms and is more basic (pKa~1 ...

Enterococcus faecalis = details: cited from earlier work
Text: (§1) It should be noted that conclusions drawn from the in vitro studies are not always consistent with those determined in vivo. Nevertheless, these “not-ideal” conditions may reveal an unexpected activity of new compounds. […] In this case, the MIC values decreased down to sixteenfold in the presence of plasma. The synergistic effect may be connected with complement proteins or clotting factors, as the a ...

Escherichia coli = details: cited from earlier work
Text: as §1

Pseudomonas aeruginosa = details: cited from earlier work
Text: as §1

S. aureus = details: cited from earlier work
Text: as §1

Question: Which “MIC values in BHI and TSB compared with MH (influence of medium type)” value [1] does the source give for “Pal-CKKKRC-NH2 [Pal-CKKKRC-NH2 (linear), non-cyclized palmitoylated lipopeptide amide with two cysteine residues]” here?
Answer: Its value is “this dependence was not observed”.

Question: With “Pal-CKKRKC-NH2 (disulfide) [palmitoylated lipopeptide amide with intramolecular disulfide bridge]” as the substance, how does the “MIC values in BHI and TSB compared with MH (influence of medium type)” value [1] read?
Answer: The value was “slightly more active in MH”.

Question: For “Pal-CRKKKC-NH2 (disulfide) [palmitoylated lipopeptide amide with intramolecular disulfide bridge]”, which “MIC values in BHI and TSB compared with MH (influence of medium type)” value [1] is on record?
Answer: The value was “slightly more active in MH”.

Question: With Pal-KKKK-NH2 as the substance, how does the antistaphylococcal activity (Staphylococcus) read?
Answer: Its antistaphylococcal activity is “high antistaphylococcal activity”.

Question: With Pal-RRR-NH2 as the substance, how does the antistaphylococcal activity (Staphylococcus) read?
Answer: Its antistaphylococcal activity is “high antistaphylococcal activity”.

Question: For “protegrin-1 (RGGRLCYCRRRFCVCVGR-NH2; disulfide 8-13, 6-15; ends not checked; UniProt P32194 131-148, looked up) [antimicrobial peptide studied by Steinberg et al. (1997)]”, which “fold lowering of MIC with peptide prepared in aqueous acetic acid and BSA vs reference CLSI protocol” value (shortened to “fold lowering of MIC”) (Enterococcus faecalis) is on record?
Answer: The value was 5 times.

Question: And the “fold lowering of MIC” value (Escherichia coli)?
Answer: The value was “up to 30 times”.

Question: What about the “fold lowering of MIC” value (Pseudomonas aeruginosa) of the same substance?
Answer: Its value is “up to 30 times”.

Question: What about the “fold lowering of MIC” value (S. aureus) of the same substance?
Answer: The value was 5 times.
